The record followed here is ChEMBL document CHEMBL4825751, “Design, synthesis, and antitumor activity evaluation of steroidal oximes” (Bioorg Med Chem, 2021).

The source made the active and inactive calls. The rule behind the calls is not given here.

The subject of assay [1] is HepG2. Briefly: Anticancer activity against human HepG2 cells assessed as inhibition of cell proliferation measured after 72 hrs by MTT assay. It counts as functional, cell-based. Particulars: HepG2, 72 h. For orientation: Tetrazolium dyes change colour on reduction, which living cells bring about.
Assay [2] relates to WiDr. Briefly: Induction of oxidative stress in human WiDr cells assessed as increase in superoxide anion level at 15 uM incubated for 24 hrs by DHE based red fluorescence assay. It counts as functional, cell-based.
Assay [3] deals with WiDr. Description: Induction of mitochondrial membrane potential loss in human WiDr cells at IC50 concentration after 72 hrs by flow cytometry. It counts as functional, cell-based. (In general: A flow cytometer gives signals particle by particle.)
In assay [4] the test system is WiDr. Briefly: Induction of oxidative stress in human WiDr cells assessed as increase in superoxide anion level at IC50 concentration incubated for 24 hrs by DHE based red fluorescence assay. It counts as functional, cell-based.
Assay [5] deals with WiDr. Description: Induction of oxidative stress in human WiDr cells assessed as increase in peroxide level at IC50 concentration incubated for 24 hrs by DCFH2 based green fluorescence assay. The format is functional, cell-based.
Assay [6] concerns WiDr. Briefly: Induction of apoptosis in human WiDr cells assessed as late apoptotic/necrotic cells at 50 uM measured after 72 hrs by annexin-V and propidium iodide staining based flow cytometry analysis. The format is functional, cell-based.
Assay [7] deals with PC-3. Briefly: Antiproliferative activity against human PC-3 cells assessed as reduction in cell viability at IC50 concentration measured after 72 hrs by Annexin-V and propidium iodide staining based flow cytometry analysis. It counts as functional.
Assay [8] relates to NCI-H1299. Description: Anticancer activity against human H1299 cells assessed as inhibition of cell proliferation measured after 72 hrs by MTT assay. The format is functional, cell-based. The following applies: NCI-H1299, 72 h.
The subject of assay [9] is PC-3. Description: Induction of cell cycle arrest in human PC-3 cells assessed as pre-G0/G1 phase at 40 uM measured after 72 hrs by propidium iodide based assay relative to control. The format is functional.
Assay [10] concerns PC-3. Briefly: Induction of oxidative stress in human PC-3 cells assessed as increase in peroxide level at 15 uM incubated for 24 hrs by DCFH2 based green fluorescence assay. The format is functional, cell-based.
The test system of assay [11] is WiDr. Description: Induction of oxidative stress in human WiDr cells assessed as increase in peroxide level at 15 uM incubated for 24 hrs by DCFH2 based green fluorescence assay. The format is functional, cell-based.
The subject of assay [12] is WiDr. Description: Induction of cell cycle arrest in human WiDr cells assessed as pre-G0/G1 phase at 40 uM measured after 72 hrs by propidium iodide based assay relative to control. The format is functional.
The subject of assay [13] is PC-3. Description: Anticancer activity against human PC-3 cells assessed as inhibition of cell proliferation measured after 72 hrs by MTT assay. The format is functional, cell-based. Particulars: PC-3, 72 h.
Assay [14] relates to PC-3. Description: Induction of oxidative stress in human PC-3 cells assessed as increase in superoxide anion level at 15 uM incubated for 24 hrs by DHE based red fluorescence assay. It counts as functional, cell-based.
Assay [15] relates to WiDr. Briefly: Antiproliferative activity aginst human WiDr cells assessed as reduction in cell viability at IC50 concentration measured after 72 hrs by annexin -V and propidium iodide staining based flow cytometry analysis. The format is functional.
Assay [16] deals with PC-3. Description: Effect on GSH expression in human PC-3 cells incubated for 24 hrs by mercury orange based red fluorescence assay. It counts as functional, cell-based.
For assay [17], the system named is PC-3. Briefly: Induction of apoptosis in human PC-3 cells assessed as apoptotic cells at 50 uM measured after 72 hrs by annexin-V and propidium iodide staining based flow cytometry analysis. The format is functional.
The subject of assay [18] is PC-3. Briefly: Induction of mitochondrial membrane potential loss in human PC-3 cells at IC50 concentration after 72 hrs by flow cytometry. The format is functional, cell-based.
The test system of assay [19] is PC-3. Description: Induction of apoptosis in human PC-3 cells assessed as apoptotic cells at IC50 concentration measured after 72 hrs by annexin-V and propidium iodide staining based flow cytometry analysis. It counts as functional.
In assay [20] the test system is WiDr. Description: Effect on GSH expression in human WiDr cells incubated for 24 hrs by mercury orange based red fluorescence assay. It counts as functional, cell-based.
Assay [21] deals with PC-3. Briefly: Induction of mitochondrial membrane potential loss in human PC-3 cells at 50 uM after 72 hrs by flow cytometry. The format is functional.
Assay [22] relates to WiDr. Description: Anticancer activity against human WiDr cells assessed as inhibition of cell proliferation measured after 72 hrs by MTT assay. It counts as functional, cell-based.
Assay [23] deals with PC-3. Briefly: Induction of apoptosis in human PC-3 cells assessed as fold increase in BAX/BCL-2 ratio at 50 uM measured after 72 hrs relative to control. It counts as functional.
Assay [24] has as its system PC-3. Description: Induction of oxidative stress in human PC-3 cells assessed as increase in superoxide anion level at IC50 concentration incubated for 24 hrs by DHE based red fluorescence assay. It counts as functional, cell-based.
For assay [25], the system named is PC-3. Description: Induction of oxidative stress in human PC-3 cells assessed as increase in peroxide level at IC50 concentration incubated for 24 hrs by DCFH2 based green fluorescence assay. It counts as functional, cell-based.
Assay [26] relates to CCD-841CoN. Briefly: Anticancer activity against human CCD841 CoN cells assessed as inhibition of cell proliferation measured after 72 hrs by MTT assay. The format is cell-based.
Assay [27] concerns PC-3. Briefly: Cytotoxicity against human PC-3 cells assessed as cell viability measured after 72 hrs by MTS assay. It counts as functional, cell-based. The following applies: PC-3, 72 h.
Assay [28] deals with WiDr. Description: Induction of cell cycle arrest in human WiDr cells assessed as G2/M phase at 40 uM measured after 72 hrs by propidium iodide based assay relative to control. The format is functional.
Assay [29] deals with PC-3. Briefly: Induction of apoptosis in human PC-3 cells assessed as late apoptotic/necrotic cells at 50 uM measured after 72 hrs by annexin-V and propidium iodide staining based flow cytometry analysis. The format is functional.
Assay [30] concerns PC-3. Briefly: Induction of apoptosis in human PC-3 cells assessed as necrotic cells at IC50 concentration measured after 72 hrs by annexin-V and propidium iodide staining based flow cytometry analysis. It counts as functional.
In assay [31] the test system is PC-3. Description: Induction of apoptosis in human PC-3 cells assessed as increase in BAX/BCL-2 ratio at IC50 concentration measured after 72 hrs. The format is functional, cell-based.
In assay [32] the test system is PC-3. Description: Induction of cell cycle arrest in human PC-3 cells assessed as G0/G1 phase measured after 72 hrs by cell cycle analysis relative to control. It counts as functional.
In assay [33] the test system is WiDr. Description: Induction of apoptosis in human WiDr cells assessed as increase in BAX/BCL-2 ratio at IC50 concentration measured after 72 hrs. It counts as functional, cell-based.

Turning to `C[C@]12CCCC=C1CC[C@@H]1[C@@H]2CC[C@]2(C)/C(=N/O)CC[C@@H]12`, the IC50 (as a rule, the concentration at which inhibition is half-maximal) in [1] was 18.2 µM; in [8], 19.2 µM; in [13], 14.5 µM; in assay [22], 16.1 µM; in assay [26], greater than 75 µM. Further, the outcome in assay [2], in assay [3], in assay [4], in assay [5], in assay [6] and in [9] was Active. Also, the outcome in [10], in assay [11], in [12], in assay [14], in [18] and in assay [24] was Active. Moreover, in [25], the result was Active. Besides, the Activity in [7] stood at 75.46%; in assay [15], 38.67%; in [17] it was 32.37%; in [19], 6.25%. Moreover, the result in assay [16] and in assay [20] was inactive. For the same compound, the entries for the “fold change (FC)” value in assay [21] and in [23] were 3.66 and 1.51, respectively.
Take `CC(C)CCC[C@@H](C)[C@H]1CC[C@H]2[C@@H]3C/C(=N\O)C4C[C@@H](O)CC[C@]4(C)[C@H]3CC[C@]12C` (some centres not stated): the IC50 in assay [27] came out at 49.8 µM.
Consider `C[C@]12CCC=C[C@@H]1CC[C@@H]1[C@@H]2CC[C@]2(C)/C(=N/O)CC[C@@H]12`, for which the IC50 in [1] is 23.9 µM; in assay [8], 18.6 µM; in [13], 13.8 µM; in assay [22], 9.1 µM; in assay [26], 31.7 µM. In addition, the outcome in assay [28], in assay [2], in assay [3], in [4], in [5] and in assay [9] was Active. Besides, the outcome in [10], in [11], in assay [12], in assay [14], in [31] and in [18] was Active. For the same compound, the result in assay [24], in assay [25] and in assay [33] was Active. The Activity in assay [7] is listed as 72.74%; in assay [29], 18.01%; in assay [30] it was 49.94%; in assay [15], 47.67%; in [32], 9.66%. For the same compound, the outcome in [16] and in assay [20] was inactive.
Regarding `C[C@]12CC[C@H]3[C@@H](CC[C@@]45O[C@@H]4CCC[C@]35C)[C@@H]1CC/C2=N\O`, the results for the IC50 in assay [1] and in [22] were 52.7 µM and 53.4 µM, respectively.
As for `C[C@]12CCC=C[C@@H]1CC[C@@H]1[C@@H]2CC[C@]2(C)C(=O)CC[C@@H]12`, the IC50 in assay [1] stood at 15 µM; in assay [13], 23.1 µM.
With `C[C@]12CC[C@H]3O[C@H]3[C@@H]1CC[C@@H]1[C@@H]2CC[C@]2(C)/C(=N/O)CC[C@@H]12`, the IC50 in [1] amounted to 64.3 µM; in assay [13], 77.9 µM; in assay [22], 75 µM.
For `CC(C)C(=O)Nc1ccc([N+](=O)[O-])c(C(F)(F)F)c1` [FLUTAMIDE], the IC50 in assay [8] was greater than 500 µM; in assay [13] it was 58 µM.
With `CCc1c2c(nc3ccc(OC(=O)N4CCC(N5CCCCC5)CC4)cc13)-c1cc3c(c(=O)n1C2)COC(=O)[C@]3(O)CC` [IRINOTECAN], the IC50 in assay [22] was 13.9 µM.
For `C[C@]12CC[C@H]3O[C@H]3[C@@H]1CC[C@@H]1[C@@H]2CC[C@]2(C)C(=O)CC[C@@H]12`, the IC50 worked out at 32.6 µM in [1], 46.8 µM in assay [13] and 60.9 µM in assay [22].
As to `O=c1[nH]cc(F)c(=O)[nH]1` [FLUOROURACIL], the IC50 amounted to 19 µM in assay [1] and 10.5 µM in assay [22].
Turning to `C[C@]12CC[C@H]3[C@@H](CC[C@@]45O[C@@H]4CCC[C@]35C)[C@@H]1CCC2=O`, the IC50 is 42.4 µM in assay [1], 62.1 µM in assay [13] and 59.1 µM in [22].
Turning to `COc1cc([C@@H]2c3cc4c(cc3[C@@H](O[C@@H]3O[C@@H]5CO[C@@H](C)O[C@H]5[C@H](O)[C@H]3O)[C@H]3COC(=O)[C@H]23)OCO4)cc(OC)c1O` [ETOPOSIDE], the IC50 in assay [8] stood at 230 µM.
Regarding `C[C@]12CCCC=C1CC[C@@H]1[C@@H]2CC[C@]2(C)C(=O)CC[C@@H]12`, the IC50 in assay [1] turned out to be 17.7 µM; in assay [8] it was 21.5 µM; in assay [13], 21.5 µM; in [22], 28 µM.
